Test system: MDA-MB-468 spheroids with HUVEC/MSC, viability
Test: Anticancer human tumor MDA-MB-468 cell line growth inhibition [PI3K];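 also: spheroids exposed to agents for seven days before readout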;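 as to viability, T/C: 100% = DMSO vehicle control viability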
Settings: for IC50: curve of first compound; for viability, T/C: stronger effect = lower value
In short: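 Stroma-containing spheroids: tumor line, pooled-donor HUVEC, hMSC. Treatments: targeted agents with PI3K inhibitors. Dosing: clinically relevant, half-log spacing, 10 microM ceiling without known Cmax. Read-out: cell viability.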

[1] = second compound 0.0316 µM, first compound 0.0316 µM
[2] = second compound 0.0316 µM, first compound 0.1 µM
[3] = second compound 0.1 µM, first compound 0.0316 µM
[4] = second compound 0.1 µM, first compound 0.1 µM
[5] = second compound 0.316 µM, first compound 0.0316 µM
[6] = second compound 0.316 µM, first compound 0.1 µM
[7] = second compound 1 µM, first compound 0.0316 µM
[8] = second compound 1 µM, first compound 0.1 µM
[9] = second compound 3.16 µM, first compound 0.0316 µM
[10] = second compound 3.16 µM, first compound 0.1 µM
[11] = second compound 10 µM, first compound 0.0316 µM
[12] = second compound 10 µM, first compound 0.1 µM

**Q.** What does the source list for CC(=O)c1c(C)c2cnc(Nc3ccc(N4CCNCC4)cn3)nc2n(C2CCCC2)c1=O + CC(Nc1ncnc2nc[nH]c12)c1cc2cccc(Cl)c2c(=O)n1-c1ccccc1?
**A.** IC50 (second compound 0.0316 µM): > 0.1 µM; IC50 (second compound 0.1 µM): > 0.1 µM; IC50 (second compound 0.316 µM): > 0.1 µM; IC50 (second compound 1 µM): > 0.1 µM; IC50 (second compound 3.16 µM): > 0.1 µM; IC50 (second compound 10 µM): < 0.000316 µM; viability, T/C (second compound 0.0316 µM, first compound 0.000316 µM): 92.6%; viability, T/C (second compound 0.0316 µM, first compound 0.001 µM): 93.9%; viability, T/C (second compound 0.0316 µM, first compound 0.00316 µM): 84.6%; viability, T/C (second compound 0.0316 µM, first compound 0.01 µM): 103%; viability, T/C [1]: 99.7%; viability, T/C [2]: 88.1%; viability, T/C (second compound 0.1 µM, first compound 0.000316 µM): 88.6%; viability, T/C (second compound 0.1 µM, first compound 0.001 µM): 91.2%; viability, T/C (second compound 0.1 µM, first compound 0.00316 µM): 84.1%; viability, T/C (second compound 0.1 µM, first compound 0.01 µM): 92.7%; viability, T/C [3]: 80%; viability, T/C [4]: 86.4%; viability, T/C (second compound 0.316 µM, first compound 0.000316 µM): 84.7%; viability, T/C (second compound 0.316 µM, first compound 0.001 µM): 78.9%; viability, T/C (second compound 0.316 µM, first compound 0.00316 µM): 81.3%; viability, T/C (second compound 0.316 µM, first compound 0.01 µM): 72.8%; viability, T/C [5]: 90%; viability, T/C [6]: 78.5%; viability, T/C (second compound 1 µM, first compound 0.000316 µM): 66.4%; viability, T/C (second compound 1 µM, first compound 0.001 µM): 71.4%; viability, T/C (second compound 1 µM, first compound 0.00316 µM): 59.3%; viability, T/C (second compound 1 µM, first compound 0.01 µM): 83.3%; viability, T/C [7]: 76.2%; viability, T/C [8]: 62.8%; viability, T/C (second compound 3.16 µM, first compound 0.000316 µM): 59.6%; viability, T/C (second compound 3.16 µM, first compound 0.001 µM): 53.1%; viability, T/C (second compound 3.16 µM, first compound 0.00316 µM): 62.3%; viability, T/C (second compound 3.16 µM, first compound 0.01 µM): 58.1%; viability, T/C [9]: 67.2%; viability, T/C [10]: 58.8%; viability, T/C (second compound 10 µM, first compound 0.000316 µM): 38.9%; viability, T/C (second compound 10 µM, first compound 0.001 µM): 38.5%; viability, T/C (second compound 10 µM, first compound 0.00316 µM): 39.3%; viability, T/C (second compound 10 µM, first compound 0.01 µM): 46.7%; viability, T/C [11]: 45.7%; viability, T/C [12]: 46.1%

**Q.** Which results are given for CCCS(=O)(=O)Nc1ccc(F)c(C(=O)c2c[nH]c3ncc(-c4ccc(Cl)cc4)cc23)c1F + CC(Nc1ncnc2nc[nH]c12)c1cc2cccc(Cl)c2c(=O)n1-c1ccccc1?
**A.** IC50 (second compound 0.0316 µM): 4.45 µM; IC50 (second compound 0.1 µM): 3.91 µM; IC50 (second compound 0.316 µM): 3.74 µM; IC50 (second compound 1 µM): 3.49 µM; IC50 (second compound 3.16 µM): 2.53 µM; IC50 (second compound 10 µM): < 0.0316 µM; viability, T/C [1]: 96.6%; viability, T/C [2]: 86.8%; viability, T/C (second compound 0.0316 µM, first compound 0.316 µM): 84.3%; viability, T/C (second compound 0.0316 µM, first compound 1 µM): 83.2%; viability, T/C (second compound 0.0316 µM, first compound 3.16 µM): 65.3%; viability, T/C (second compound 0.0316 µM, first compound 10 µM): 15.6%; viability, T/C [3]: 92.4%; viability, T/C [4]: 90.9%; viability, T/C (second compound 0.1 µM, first compound 0.316 µM): 76.3%; viability, T/C (second compound 0.1 µM, first compound 1 µM): 82.2%; viability, T/C (second compound 0.1 µM, first compound 3.16 µM): 58.1%; viability, T/C (second compound 0.1 µM, first compound 10 µM): 13.4%; viability, T/C [5]: 83.2%; viability, T/C [6]: 89.2%; viability, T/C (second compound 0.316 µM, first compound 0.316 µM): 78.3%; viability, T/C (second compound 0.316 µM, first compound 1 µM): 73.6%; viability, T/C (second compound 0.316 µM, first compound 3.16 µM): 57.2%; viability, T/C (second compound 0.316 µM, first compound 10 µM): 14%; viability, T/C [7]: 61.7%; viability, T/C [8]: 66.1%; viability, T/C (second compound 1 µM, first compound 0.316 µM): 69%; viability, T/C (second compound 1 µM, first compound 1 µM): 68.3%; viability, T/C (second compound 1 µM, first compound 3.16 µM): 53.6%; viability, T/C (second compound 1 µM, first compound 10 µM): 11%; viability, T/C [9]: 53.6%; viability, T/C [10]: 64.3%; viability, T/C (second compound 3.16 µM, first compound 0.316 µM): 49.3%; viability, T/C (second compound 3.16 µM, first compound 1 µM): 57.7%; viability, T/C (second compound 3.16 µM, first compound 3.16 µM): 48.4%; viability, T/C (second compound 3.16 µM, first compound 10 µM): 11.2%; viability, T/C [11]: 40.3%; viability, T/C [12]: 39.3%; viability, T/C (second compound 10 µM, first compound 0.316 µM): 40.6%; viability, T/C (second compound 10 µM, first compound 1 µM): 42.9%; viability, T/C (second compound 10 µM, first compound 3.16 µM): 41.1%; viability, T/C (second compound 10 µM, first compound 10 µM): 8.78%

— PubChem BioAssay AID1963960 (Molecular Pharmacology Branch, DTP, NCI, 2024)
